From paper PMC9356275, “A quantitative high-throughput screen identifies compounds that lower expression of the SCA2-and ALS-associated gene ATXN2” (The Journal of Biological Chemistry, 2022)
pIC50: −log10 of the molar value. Read-outs that look alike come from different tables or passages of the source.

Columns and labels:
[1] = test system: endogenous nonmutant ATXN2 protein; experiment: Western blotting of endogenous ATXN2 protein in HEK-293 cells; format: cell-based, human
Excerpt: (§3) To characterize a bioavailable HSP90 inhibitor, we proceeded by using 17-dimethylaminoethylamino-17-demethoxygeldanamycin (17-DMAG, also known as alvespimycin) for inhibition of ATXN2 in cultured cells instead of the original compounds identified in the screen.
Experiments were repeated three times; values are means and SD.

ATXN2-luc [2] = experiment: ATXN2-luc luciferase dose-response in H2 cells, 48 h; format: cell-based; conditions: Homo sapiens
HSP90 = HSP90 target engagement: HSP70 abundance by Western blotting in HEK-293 cells; format: cell-based, human
[3] = set-up: method as in PMID 24471734, PMID 15791458; conditions: ref [39], [40]; cited from earlier work
mutant ATXN2-Q58 protein = experiment: Western blotting in HEK-293 ATXN2-Q58 KI cells; format: cell-based, human; conditions: 24 h
Protocol: as §3
Figure 4 Reduction of ATXN2 expression by 17-DMAG restores autophagy and ER stress phenotypes in ATXN2 mutant cells.A, ATXN2-Q58 HEK-293 cells were treated with 17-DMAG at the indicated doses for 24 h, and then proteins were evaluated by Western blotting. Untreated HEK-293 cells with normal A P-eIF2α TXN2 were also included. […] B, quantification of the blots in A. The n number of blots ranged from 3 to 9. Values are means and SD. Probabilities are from one-way ANOVA and post hoc Bonferroni-corrected t tests: ns; ∗p < 0.05; ∗∗p < 0.01, and ∗∗∗p < 0.001.

BAC ATXN2-Q22 mice = experiment: Survival / tolerability of treated BAC ATXN2-Q22 mice; format: in vivo, mouse
Excerpt: Our study identified 11 compounds known to inhibit HSP90, including one that was identified in our original pilot screen. […] 17-DMAG inhibited transcription of ATXN2 in HEK-293 cells in a dose-dependent manner and reduced the abundance of endogenous and mutant ATXN2 proteins in HEK-293 cells (Figs. 3 and 4). […] Toxicity was evident in our in vivo experiment as well. […] However, like for 17-DMAG, BAC ATXN2-Q22 mice treated with HSP990 had 80% reduced ATXN2 protein abundance in the cerebellum (Fig. 5B).
(§1) Control-treated mice included vehicle alone.

ATXN2-luc [4] = experiment: ATXN2-luc mRNA by quantitative PCR in H2 cells; format: cell-based, human; conditions: 1 and 10 μM, 48 h
Protocol: treated with the indicated doses of DMAG for 48 hours, then ATXN2-luc mRNA abundance was
determined by quantitative PCR using primers that amplify the luciferase gene.

endogenous ATXN2 = experiment: Endogenous ATXN2 mRNA by qPCR in HEK-293 cells; format: cell-based; conditions: Homo sapiens
ATXN2 protein = experiment: Cerebellar ATXN2 protein by Western blotting in BAC ATXN2-Q22 mice; format: in vivo, mouse
Excerpt: Figure 5 Effect of HSP90 inhibitors on ATXN2 cerebellar expression in vivo in BAC ATXN2-Q22 mice. Inhibition of ATXN2 expression by 17-DMAG (A) and HSP990 (B) versus vehicle controls. Mouse ID numbers are shown above the lanes. Western blot analysis showing upregulation of HSP70 expression following 17-DMAG treatment, which indicates successful HSP90 target engagement. The human transgenic ATXN2 protein is indicated as ATXN2-Q22 and the endogenous mouse protein as mATXN2. Values shown are mean and SD. Probabilities are from Student’s t tests: ∗p < 0.05; ∗∗∗p < 0.001. Three blots were quantified. ATXN2, ataxin-2; BAC, bacterial artificial chromosome; 17-DMAG, 17-dimethylaminoethylamino-17-demethoxygeldanamycin; HSP, heat shock protein.
as §1
Proteins were prepared, separated on precast polyacrylamide gels (Bio-Rad), transferred to Hybond (Amersham), and detected by enhanced chemiluminescence (Amersham) as previously described ([12], [27]). […]

[5] = set-up: method as in PMID 25625276; conditions: ref [41]; cited from earlier work
ATXN2 mRNA = experiment: Cerebellar ATXN2 mRNA by qPCR in BAC ATXN2-Q22 mice; conditions: 4 mg/kg intraperitoneal, every other day over 10 days
ATXN2-luc [6] = experiment: MSSR pilot screen: ATXN2-luc luciferase assay (Bright-Glo) in H2 cells, single 10 μM dose; format: cell-based, human
ATXN2-luc [7] = experiment: MSSR hit retest: ATXN2-luc luciferase assay, average of H2 and S1 cells (1 and 10 uM); format: cell-based, human; conditions: Homo sapiens
Excerpt: (§2) Supplement mmc2.xlsx, sheet "43 annotated compounds"

in vitro = conditions: human
Protocol: The values for H2 and S2 were used as replicates to calculate IC50s and to assess cell viability.
Compounds were plated at 2× concentrations in phenol red–free DMEM in 25 μl in 384-well plates with each compound dose plated in triplicate. An equal volume of S2, H2, or SC cells (24,000 cells/well) suspended in phenol red–free DMEM with 10% fetal bovine serum and 1× penicillin/streptomycin were added. Cells were grown 24 h and then assayed first by using the CellTiter-Fluor reagent (20 μl) followed by the addition of Bright-Glo (65 μl) luciferase assay, using a multimode plate reader (Beckman; DT880). Values were reported as the mean ± SD with n = 3. IC50s were determined by the Hill coefficient method using an online tool (https://www.aatbio.com/tools/ic50-calculator).

ATXN2-luc [8] = experiment: Secondary assays: ATXN2-luc in S2 and H2 cells, 12 doses, Bright-Glo; format: cell-based, human
H2 and S1 cells = experiment: Paired MTT viability assay, average of H2 and S1 cells (1 and 10 uM); format: cell-based, human; conditions: Homo sapiens
Excerpt: as §2

H2 cells = conditions: 1 nM
CMV-luc = experiment: Secondary assays: CMV-luc in SC cells, Bright-Glo; format: cell-based, human; conditions: minimum CMV-luc signal in SC cells over 12 doses; summary data
[9] = 100 mg/kg intraperitoneal, every other day over 16 days

For CO[C@H]1/C=C\C=C(/C)C(=O)NC2=CC(=O)C(NCCN(C)C)=C(C[C@@H](C)C[C@H](OC)[C@H](O)[C@@H](C)/C=C(\C)[C@@H]1OC(N)=O)C2=O [17-DMAG, 17-dimethylaminoethylamino-17-demethoxygeldanamycin], the “Abundance of endogenous nonmutant ATXN2 protein” value [1] was “reduced the abundance of endogenous nonmutant ATXN2 protein”, the pIC50 (ATXN2-luc [2]; H2 cells, read-out: IC50 for lowering ATXN2-luc) was 7.03 and the HSP70 abundance (HSP90) was “significantly increased HSP70 abundance”. For the same compound, the “Oral bioavailability and blood–brain barrier crossing” value [3] was “orally bioavailable and able to cross the blood–brain barrier”, the “Mutant ATXN2 protein abundance” value (mutant ATXN2-Q58 protein) was “significantly reduced mutant ATXN2 protein” and the Tolerability in mice (BAC ATXN2-Q22 mice; [9]) was “well tolerated”. The “ATXN2-luc transcription (mRNA by qPCR)” value (ATXN2-luc [4]) was “reduction of ATXN2-luc transcription”, the “ATXN2-luc transcription (mRNA by qPCR)” value (ATXN2-luc [4]; listed as DMAG) was “reduces transcription of ATXN2-luc” and the pIC50 (endogenous ATXN2; HEK293, HEK-293 cells, read-out: IC50, endogenous ATXN2 transcription by qPCR) was 6.12. For the same compound, the “Reduction of ATXN2 protein in the cerebellum” value (ATXN2 protein; [9]) was 90%.

For COc1cccc(-c2cc(F)ccc2[C@H]2Cc3nc(N)nc(C)c3C(=O)N2)n1 [HSP990], the “Toxicity in clinical trial” value [5] is given as “dose-limiting neurotoxicity”, the “Reduced ATXN2 mRNA abundance in cerebella” value (ATXN2 mRNA) is given as 20% and the “ATXN2 mRNA abundance in cerebella” value (ATXN2 mRNA; […]) is given as 78.54 ± 3.9%. For the same compound, the “Survival of treated mice” value (BAC ATXN2-Q22 mice; 4 mg/kg intraperitoneal, every other day over 10 days, n = 4) was “half of the mice we treated with HSP990 did not survive treatment” and the “Reduced ATXN2 protein abundance in the cerebellum” value (ATXN2 protein; 4 mg/kg intraperitoneal, every other day over 10 days) was 80%.

With C[C@@H]1O[C@@H](O[C@@H]2C=C3CC[C@@H]4[C@H](CC[C@]5(C)[C@@H](c6ccc(=O)oc6)CC[C@]45O)[C@@]3(C)CC2)[C@H](O)[C@H](O)[C@H]1O [Proscillaridin A] the “SD from mean (ATXN2-luc, Z-score)” value (ATXN2-luc [6]; H2 cells, single dose (title: 10 μM compound), overnight) was -7.684 SD, the “SD from mean (pilot screen)” value (ATXN2-luc [6]; pilot screen) was -7.684 SD and the “SD from mean (pilot screen)” value (ATXN2-luc [6]; pilot screen at 10 µM compound, H2 cells expressing ATXN2-luc) was -7.684. The “¦Score/1SD¦” value (ATXN2-luc [6]; pilot screen, absolute score divided by 1SD (0.891 or 0.9)) was 8.62, the pIC50 (ATXN2-luc [2]; read-out: IC50, ATXN2-luc expression by luciferase assay) was 7.28 and the activity at 1 µM (ATXN2-luc [7]; read-out: H2&S1 ave luc 1uM) was 54%. The activity (ATXN2-luc [7]; read-out: H2&S1 ave luc 10uM) was 22%, the pIC50 (endogenous ATXN2; HEK293, 48 h, read-out: IC50, endogenous ATXN2 by qPCR) was 6.17 and the viability at 24 h (in vitro) was 74.2%. For the same compound, the pIC50 (ATXN2-luc [8]; Homo sapiens, 24 h, read-out: IC50 for lowering ATXN2-luc) was 7.77, the “min ATXN2-luc (%)” value (ATXN2-luc [8]; minimum ATXN2-luc signal over 12 doses, H2 and S2 cells, summary data) was 7.9859% and the viability at 1 µM (H2 and S1 cells; read-out: H2&S1 ave MTT 1uM, 1 uM compound) was 47.8%. The viability at 10 µM (H2 and S1 cells; read-out: H2&S1 ave MTT 10uM, 10 uM compound) was 45%, the “Cellular viability (MTT)” value (H2 cells) was “minimal effect on cellular viability” and the “min SC luc (%)” value (CMV-luc) was 121.976%.
